Series [1] concerns PC3 (prostate cancer) spheroids. In words: 3D spheroid cytotoxicity, Annexin V-red, IncuCyte. The format is cell-based. As to the method:
(§1) The MDA-MB-231 cells were plated in quadruplicate at 2×10^3 cells per well in a 96 well ULA plate (Corning 7007) and the cells were further cultured for 3 days to form spheroids. Then, the spheroids were treated with the peptides having SEQ ID NO:1 and the apoptosis of spheroids was assayed using Annexin V-red detection marker. Spheroids were imaged at ×10 magnification in an IncuCyte Zoom Live-cell analysis system (Essen Bioscience) at 37° C. with 5% CO2. Spheroid cell images were recorded every two hours and the resulting red colors, reflecting cell apoptosis, were analyzed with the IncuCyte software.)
(§2) Similarly to Example 2, the effect of D-PEP on “tumor like” 3D cancer cell spheroids of prostate cancer cells PC3 and MDA-MB-231, was tested and quantified. Annexin V-red apoptosis marker indicator was used to assess cytotoxicity and the cytotoxicity was calculated as integrated intensity over the surface (RCU×μm^2/Image).

Series [2] can be described thus: Mice weight in xenograft study. The format is in vivo. The following applies: 135 μg/Kg IP or IT, days 18-30; all groups. As to the method: 30 female athymic nude (FOXN1NU) mice (5-6 weeks old) were injected subcutaneously (S.C.) with 2.5×10^6 MDA-MB-231 cells overexpressing NAF-1. Two and half weeks (day 18) after S.C. injection, mice weight and tumor size was measured. Mice were divided into three different treatment groups that were administrated 3 serial injections per week, on days 18, 21, 23, 25, 28, and 30. The groups were as follows: Group 1: Intraperitoneal (IP) injection of 135 μg/Kg D-PEP; Group 2: Intratumoral (IT) injection of PBS—control; and Group 3: Intratumoral (IT) injection of 135 μg/Kg D-PEP. On days 18, 21, 23, 25, 28 and 30 after S.C. injection of the tumor cells, tumor size and mice weight was measured in all groups.

The test system of series [3] is MDA-MB-231 breast cancer spheroids. In words: 3D spheroid apoptosis/cytotoxicity, Annexin V-red, IncuCyte. The format is cell-based, human. Conditions: incubated for 36 hours, 10 or 50 μM, FIG. 11. As to the method:
as §1, §2

The next series relates to chymotrypsin. In words: Stability against protease cleavage, HPLC. The format is in vitro ADME. Conditions: 0.001 mg/ml protease, 22° C., FIG. 17A. As to the method: (§3) Stability of the D-PEP, and 3D-PEP, analogs, and of PEG-N-3D-PEP and PEG-C-3D-PEP conjugates against protease cleavage (chymotrypsin and trypsin) was tested and compared to stability of the native peptide having SEQ ID NO: 1. To peptides' stocks of 430 μl in concentration of 450 μM were added 0.001 mg/ml protease (Trypsin or Chymotrypsin) and incubated in room temperature (22° C.). Samples of 40 μl were taken before adding the protease and after every 15 min in the first hour, and after 2 […] and 24 h. To stop the proteolysis samples were added 7 μl of 2% TFA in TDW. The samples were added 60 μl TDW and were analyzed using analytical HPLC.

The subject of the next series is trypsin. The series can be described thus: Stability against protease cleavage, HPLC. Conditions: 0.001 mg/ml protease, 450 μM peptide, 22° C.; FIG. 17B. The format is in vitro ADME. As to the method: as §3

Non-standard residues stand in square brackets, D forms with d. Residues, ends and D or L forms follow the SMILES beside them.

As to `CC(C)C[C@@H](NC(=O)[C@H](N)Cc1ccccc1)C(=O)NCC(=O)N[C@@H](C(=O)N[C@H](CC(C)C)C(=O)N[C@H](C)C(=O)N[C@H](CC(C)C)C(=O)N[C@H](CC(C)C)C(=O)NCC(=O)N[C@H](Cc1ccc(O)cc1)C(=O)N[C@H](CC(C)C)C(=O)N[C@H](C)C(=O)N[C@@H](C(=O)N[C@H](CCCNC(=N)N)C(=O)N1CCC[C@@H]1C(=O)N[C@H](Cc1ccccc1)C(=O)N[C@H](CC(C)C)C(=O)N1CCC[C@@H]1C(=O)N[C@H](CCCCN)C(=O)N[C@H](CCCCN)C(=O)N[C@H](CCCCN)C(=O)N[C@H](CCC(N)=O)C(=O)N[C@H](CCC(N)=O)C(=O)N[C@H](CCCCN)C(=O)O)C(C)C)C(C)C` [D-PEP, flgvlallgylavrpflpkkkqqk] (H-[dF][dL]G[dV][dL][dA][dL][dL]G[dY][dL][dA][dV][dR][dP][dF][dL][dP][dK][dK][dK][dQ][dQ][dK]-OH; N-terminus and C-terminus assumed), the “cytotoxicity (total toxicity integrated intensity)” value is “much more moderate” in series [1] (10 μM, incubation for 8 hours, FIG. 7); “much more significant cytotoxic effect than 10 μM of D-PEP” in series [1] (50 μM, 36 hour, compared to control, FIG. 8); “substantial cytotoxic effect” in series [1] (50 μM, incubation for 8 hours, FIG. 7); “comparable to that seen for PC3 cell” in series [3]. Besides, in series [2], the mice weight result is “not significant change in the weight of mice”. Besides, the metabolised at 1400 min, 450 μM with chymotrypsin (chymotrypsin (isolated protease), after 1400 min, read-out: peptide degraded by chymotrypsin) is 20%.

On to `CC(C)C[C@H](NC(=O)[C@H](C)NC(=O)[C@H](CC(C)C)NC(=O)[C@@H](NC(=O)CNC(=O)[C@H](CC(C)C)NC(=O)[C@@H](N)Cc1ccccc1)C(C)C)C(=O)N[C@@H](CC(C)C)C(=O)NCC(=O)N[C@@H](Cc1ccc(O)cc1)C(=O)N[C@@H](CC(C)C)C(=O)N[C@@H](C)C(=O)N[C@H](C(=O)N[C@@H](CCCNC(=N)N)C(=O)N1CCC[C@H]1C(=O)N[C@@H](Cc1ccccc1)C(=O)N[C@@H](CC(C)C)C(=O)N1CCC[C@H]1C(=O)N[C@@H](CCCCN)C(=O)N[C@@H](CCCCN)C(=O)N[C@@H](CCCCN)C(=O)N[C@@H](CCC(N)=O)C(=O)N[C@@H](CCC(N)=O)C(=O)N[C@@H](CCCCN)C(=O)O)C(C)C` [SEQ ID NO: 1] (H-FLGVLALLGYLAVRPFLPKKKQQK-OH; N-terminus and C-terminus assumed), for which the “time to complete degradation by chymotrypsin” value with chymotrypsin (450 μM peptide) is given as around 100 min. Further, the “time to complete degradation by trypsin” value in the series on trypsin came to 400 min.

The values above are taken from patent US11208443B2, “NAF-1 derived peptides and uses thereof” (YISSUM RESEARCH DEVELOPMENT COMPANY OF THE HEBREW …, priority 2017, dated 2021).
